Measurements as given in ChEMBL document CHEMBL5120841, “Discovery of novel pleuromutilin derivatives as potent antibacterial agents” (2022).
Values after ≈ are worked out from the molar mass of the structure shown. Active and inactive are the calls of the source. No cut-off for these calls is given here.

Columns and labels:
Type in all cases: functional
[1] = test system: Staphylococcus epidermidis; test: Antibacterial activity against methicillin-resistant Staphylococcus epidermidis ATCC 51625 assessed as bacterial growth inhibition incubated for 18 to 24 hrs by microtiter dilution method; conditions: time 18-24 hrs
Staphylococcus aureus [2] = test: Antibacterial activity against Staphylococcus aureus ATCC 25923 assessed as bacterial growth inhibition incubated for 18 to 24 hrs by microtiter dilution method; conditions: time 18-24 hrs
Staphylococcus aureus [3] = test: Antibacterial activity against methicillin-resistant Staphylococcus aureus BNCC 337371 assessed as bacterial growth inhibition incubated for 18 to 24 hrs by microtiter dilution method; conditions: time 18-24 hrs
Enterococcus faecalis = test: Antibacterial activity against Enterococcus faecalis assessed as bacterial growth inhibition incubated for 18 to 24 hrs by microtiter dilution method; conditions: time 18-24 hrs
Bacillus subtilis = test: Antibacterial activity against Bacillus subtilis assessed as bacterial growth inhibition incubated for 18 to 24 hrs by microtiter dilution method; conditions: time 18-24 hrs
Escherichia coli = test: Antibacterial activity against Escherichia coli CICC 10389 assessed as bacterial growth inhibition incubated for 18 to 24 hrs by microtiter dilution method; conditions: time 18-24 hrs
Staphylococcus aureus [4] = test: Antibacterial activity against methicillin-resistant Staphylococcus aureus BNCC 337371 assessed as reduction on bacterial count at 6X MIC incubated for 24 hrs by time killing assay
Staphylococcus aureus [5] = test: Antibacterial activity against Staphylococcus aureus ATCC 25923 assessed as reduction on bacterial count at 6X MIC incubated for 24 hrs by time killing assay

Structure (SMILES)	MIC [1] [mg/L]	MIC (Staphylococcus aureus [2]) [mg/L]	MIC (Staphylococcus aureus [3]) [mg/L]	MIC (Enterococcus faecalis) [mg/L]	MIC (Bacillus subtilis) [mg/L]	MIC (Escherichia coli) [mg/L]	Activity (Staphylococcus aureus [4])	Activity (Staphylococcus aureus [5])
C=C[C@]1(C)C[C@@H](OC(=O)CSC2=NC(CCC)=C(C(=O)OC)C(C)N2)[C@]2(C)[C@H](C)CC[C@]3(CCC(=O)[C@H]32)[C@@H](C)[C@@H]1O (stereo partly drawn)	4 (≈ 6.79 µM)	4 (≈ 6.79 µM)	8 (≈ 13.6 µM)	> 16	16 (≈ 27.2 µM)	> 16	–	–
C=C[C@]1(C)C[C@@H](OC(=O)CSC2=NC(C)=C(C(=O)OCC)C(C)N2)[C@]2(C)[C@H](C)CC[C@]3(CCC(=O)[C@H]32)[C@@H](C)[C@@H]1O (stereo partly drawn)	0.0625 (≈ 0.109 µM)	0.0625 (≈ 0.109 µM)	0.125 (≈ 0.217 µM)	> 16	> 16	> 16	–	–
C=C[C@]1(C)C[C@@H](OC(=O)CSC2=NC(C)=C(C(=O)OCCC)C(C)N2)[C@]2(C)[C@H](C)CC[C@]3(CCC(=O)[C@H]32)[C@@H](C)[C@@H]1O (stereo partly drawn)	0.5 (≈ 0.849 µM)	0.25 (≈ 0.425 µM)	0.5 (≈ 0.849 µM)	> 16	> 16	> 16	–	–
C=C[C@]1(C)C[C@@H](OC(=O)CSC2=NC(C(CC)CC)=C(C(=O)OC)C(C)N2)[C@]2(C)[C@H](C)CC[C@]3(CCC(=O)[C@H]32)[C@@H](C)[C@@H]1O (stereo partly drawn)	0.25 (≈ 0.405 µM)	0.5 (≈ 0.811 µM)	0.25 (≈ 0.405 µM)	> 16	> 16	> 16	–	–
C=C[C@]1(C)C[C@@H](OC(=O)CSC2=NC(CC(C)C)=C(C(=O)OC)C(C)N2)[C@]2(C)[C@H](C)CC[C@]3(CCC(=O)[C@H]32)[C@@H](C)[C@@H]1O (stereo partly drawn)	0.5 (≈ 0.829 µM)	1 (≈ 1.66 µM)	0.5 (≈ 0.829 µM)	> 16	> 16	> 16	–	–
C=C[C@]1(C)C[C@@H](OC(=O)CSC2=NC(C)=C(C(=O)OC)C(C)N2)[C@]2(C)[C@H](C)CC[C@]3(CCC(=O)[C@H]32)[C@@H](C)[C@@H]1O (stereo partly drawn)	0.125 (≈ 0.223 µM)	0.25 (≈ 0.446 µM)	0.25 (≈ 0.446 µM)	> 16	8 (≈ 14.3 µM)	> 16	–	–
C=CCOC(=O)C1=C(C)N=C(SCC(=O)O[C@@H]2C[C@@](C)(C=C)[C@@H](O)[C@H](C)[C@]34CCC(=O)[C@H]3[C@@]2(C)[C@H](C)CC4)NC1C (stereo partly drawn)	0.5 (≈ 0.852 µM)	0.25 (≈ 0.426 µM)	0.25 (≈ 0.426 µM)	> 16	> 16	> 16	–	–
C=CCOC(=O)c1c(C)nc(SCC(=O)O[C@@H]2C[C@@](C)(C=C)[C@@H](O)[C@H](C)[C@]34CCC(=O)[C@H]3[C@@]2(C)[C@H](C)CC4)nc1C	0.25 (≈ 0.428 µM)	0.125 (≈ 0.214 µM)	1 (≈ 1.71 µM)	> 16	4 (≈ 6.84 µM)	> 16	–	–
C=C[C@]1(C)C[C@@H](OC(=O)CSC2=NC(C)=C(C(=O)OC(C)CC)C(C)N2)[C@]2(C)[C@H](C)CC[C@]3(CCC(=O)[C@H]32)[C@@H](C)[C@@H]1O (stereo partly drawn)	1 (≈ 1.66 µM)	0.5 (≈ 0.829 µM)	0.5 (≈ 0.829 µM)	> 16	> 16	> 16	–	–
C=C[C@]1(C)C[C@@H](OC(=O)CSc2nc(C)c(C(C)=O)c(C)n2)[C@]2(C)[C@H](C)CC[C@]3(CCC(=O)[C@H]32)[C@@H](C)[C@@H]1O	0.0313 (≈ 0.0577 µM)	≤ 0.0156	≤ 0.0156	> 16	1 (≈ 1.84 µM)	> 16	Active	Active
C=C[C@]1(C)C[C@@H](OC(=O)CSc2nc(C)c(C(=O)OC)c(CCCC)n2)[C@]2(C)[C@H](C)CC[C@]3(CCC(=O)[C@H]32)[C@@H](C)[C@@H]1O	0.5 (≈ 0.832 µM)	2 (≈ 3.33 µM)	4 (≈ 6.66 µM)	> 16	> 16	> 16	–	–
